Assay type in all cases: cell-based, E. coli
Assay [1] deals with wild type. As to conditions: 10 microliters of 30% hydrogen peroxide or cumene hydroperoxide on 1/4 in filter disc on LB plate, 24 h at 37° C., typical numbers.
The test system of assay [2] is oxyR2. Particulars: 10 microliters of 30% hydrogen peroxide or cumene hydroperoxide on 1/4 in filter disc on LB plate, 24 h at 37° C., typical numbers.
The test system of assay [3] is MC4100/oxyR^+. In words: resistance to organic solvent, tetralin overlay on LB plate, wild type. Particulars: wild type strain (oxyR^+); 5 mm depth tetralin overlay on LB agar; overnight at 37° C. Here is the method:
(§1) Wild type MC4100/oxyR^+ and MC4100oxyR2 mutants were streaked onto the same LB plate made with a 80 mm diameter PYREX Petri dish (VWR International, West Chester, Pa.). Solvent tetralin (1,2,3,4-tetrahydronaphthalene) was then poured onto the LB agar surface to have a 5 mm depth of overlay. The plate was then covered with a Petri dish cover and sealed with a strip of parafilm (American National Can, Chicago, Ill.), and put into 37° C. incubator. After overnight culturing, tetralin was decanted and the plate was put into a fume hood for 30 min to allow evaporation of the remaining tetralin. A picture of the plate was taken with an Eagle Eye® II still imaging system (Stratagene, La Jolla, Calif.).

Assay [4] has as its system MC4100oxyR2. In words: resistance to organic solvent, tetralin overlay on LB plate, oxyR2 mutant. Particulars: oxyR2 mutant strain; 5 mm depth tetralin overlay on LB agar; overnight at 37° C. Here is the method:
as §1

As for `OO` [Hydrogen peroxide], the “Diameter of the zone killed” value amounted to 25 mm in assay [1] and 13 mm in assay [2].

In the case of `c1ccc2c(c1)CCCC2` [tetralin, 1,2,3,4-tetrahydronaphthalene], the “colony growth under solvent overlay” value is “No colony was observed” in assay [3] and “grew just fine” in assay [4].

The record behind these values is US20030068611A1, “Methods for increasing microbial metabolic efficiency through regulation of oxidative stress” (priority 2001, published 2003).
